Data from patent US7807721B2, “Compositions for inhibiting the scent tracking ability of mosquitoes in environmentally defined three dimensional spaces” (Biosensory Inc., priority 1999, dated 2010).

Legend:
Type in all cases: in vivo
[1] = tested on: adult female Aedes aegypti mosquitoes; test: Competitive tests in triple cage, dual-port olfactometer: inhibitor + Clara Sludge (CS) human attractant port vs CS-only port; settings: for % Mosquitoes Entering Treatment Port (Inhibitor Port): 3 min test; for % Mosquitoes Entering Control Port (Human Scent Port): control port 500 μL CS only; for % Mosquitoes Entering Control Port (Human Scent Port) / % Mosquitoes Remaining in Cage: 3 min; for inhibition of the ability of mosquitoes to locate the human scent (CS): all tested concentration levels (25-1000 μL)
From the text: (§1) A triple cage, dual-port olfactometer, illustrated and described in detail by Posey et al. J. Med. Entomol. 35(3), 330-334 (1998), was used to study the responses of 6 to 8 day old, laboratory-reared adult female Aedes aegypti mosquitoes. This system allows mosquitoes to choose between two different stimuli. The olfactometer is constructed of clear acrylic, comprises three test chambers in a tiered configuration, has paired removable sleeves, and mosquito traps on each chamber, and is equipped with a filtered external air supply system that allows precise temperature (+/−0.5° C.) and relative humidity (+/−2%) control. Only one chamber at a time was used for the tests. Outside air was conditioned prior to entry through the choice ports, the mosquito trap, and the olfactometer by passing through a series of charcoal filters and then heated and humidified, if necessary. One hour before initiation of tests, about 75 female Ae. aegypti mosquitoes were aspirated into the olfactometer chamber and allowed to acclimatize for that one hour before testing. Test compounds were placed into test ports upwind of the traps and olfactometer chamber. A completely randomized design was used for cage position. Competitive tests were conducted. In these competitive tests, the inhibiting compound was placed into one of the ports (treatment port); the second port (check port) had the same apparatus but no chemical inhibiting compound. In these tests, inhibiting compounds were presented in glass Pyrex petri dishes (60×15 mm) that had been cleaned and sterilized in a vacuum oven and then handled only with gloves to minimize any chance of contamination and placed into one port (Treatment Port) along with another petri dish containing 500 μL of Clara Sludge (CS), a synthetic human attractant. The other port (Check Port) contained an untreated petri with no inhibiting compound and a second petri dish containing 500 μL CS. Various concentrations (25, 100, 250, 500 and 1000 μL) of the compounds were used in these tests. Each test was conducted for a period of 3 minutes; the number of mosquitoes trapped in the baited ports, and those remaining in the cage, were counted. The data are then presented as a percentage of total mosquitoes in the cage that were attracted to each port and the percentage of mosquitoes remaining in the cage (i.e., not attracted to either port).

[2] = tested on: adult female Aedes aegypti mosquitoes; test: Dual-port olfactometer tests of Example 2: test compound + CS vs CS, and Deet vs inhibitor
From the text: as §1, with “port). Tests identical to that described in Example 1 were conducted with test compounds when employed together with the synthetic human attractant (CS) in a port. The test combinations were: • (1) CS vs. CS (comparison) • (2) dehydrolinalool+CS vs. CS • (3) linalool+CS vs. CS Also for comparison purposes, a known topical mosquito repellent, Deet, namely N,N-diethyl-3-methylbenzamide, was employed to compare to linalool and to dehydrolinalool. Each test compound was tested at 100, 250 and 500 μL. The results are again presented as percent mosquitoes attracted to Ports 1 or 2 or not attracted to either port.” for “port).”

Culex nigripalpus = test: Field test, mosquito landing counts on human subject in open area surrounded by linalool dispensers
Description: In a further test of the inhibiting ability of the compounds of this invention, the following field test was conducted using linalool as the inhibiting compound. The study was conducted on a site adjacent to a wooded wetland breeding area in Sarasota, Fla. A trap baited with 200 ml/min CO2, equivalent to the respiration of a 91 kg (200 lb) man, ran continuously each night as an experimental control. The trap collections were first used to count the mosquito population and were then examine to identify the species present. The mosquito population was about 91% Culex nigripalpus, the St. Louis encephalitis vector in Florida.
The experimental design was a 2×2 Latin Square. Tests were conducted in two open areas 24 meters (80 feet) apart labeled Locations 1 and 2. Each area was 2.4 meters×2.4 meters (8 ft×8 ft), i.e., 5.76 m^2 (64 ft^2). Wooden poles 1.38 meters (4.5 feet) high and having inhibiting compound dispensers thereon were driven into the ground at the corners of the square area. On alternate nights, one area was unprotected by inhibiting compound while the other area had inhibiting compound dispensed from the dispenser. In operation, the dispenser emitted linalool inhibitor having 95% active ingredient at a rate of 20 mg/hr to 40 mg/hr.
Landing counts were taken from the arms, legs and torso of a test subject known to be moderately attractive to mosquitoes who was seated in the center of the square area. At 15-minute intervals over a period of 2 to 3 hours during peak mosquito activity, the subject changed position, alternating between Locations 1 and 2. […] Mosquitoes were killed to prevent double counting.
On some cue, they emerge en masse from the wooded wetland and fan out in a radial direction foraging for blood hosts. The period of peak activity is evidenced by a sharp increase in landing counts followed by a sharp decrease as the wave of outbound mosquitoes passes the test location. This behavior introduces two variables that must be taken into account. The first affects the experimental design and the second affects the interpretation of the results. […]

[3] = 25 micro liter test compound + 500 μL CS in treatment port
[4] = 25 micro liter test compound in treatment port
[5] = 100 micro liter test compound + 500 μL CS in treatment port
[6] = 100 micro liter test compound in treatment port
[7] = 250 micro liter test compound + 500 μL CS in treatment port
[8] = 250 micro liter test compound in treatment port
[9] = 500 micro liter test compound + 500 μL CS in treatment port
[10] = 500 micro liter test compound in treatment port
[11] = 1000 micro liter test compound + 500 μL CS in treatment port
[12] = 1000 micro liter test compound in treatment port
[13] = 100 micro liter, Port 1 Deet vs Port 2 dehydrolinalool
[14] = 100 micro liter, Port 1 test compound vs Port 2 human scent
[15] = 250 micro liter, Port 1 Deet vs Port 2 dehydrolinalool
[16] = 250 micro liter, Port 1 test compound vs Port 2 human scent
[17] = 500 micro liter, Port 1 Deet vs Port 2 dehydrolinalool
[18] = 500 micro liter, Port 1 test compound vs Port 2 human scent
[19] = 100 micro liter, Port 1 Deet vs Port 2 linalool
[20] = 250 micro liter, Port 1 Deet vs Port 2 linalool
[21] = 500 micro liter, Port 1 Deet vs Port 2 linalool

Row | Compound | % Mosquitoes Entering Treatment Port (Inhibitor Port) [1, 3] | % Mosquitoes Entering Control Port (Human Scent Port) [1, 4] | % Mosquitoes Remaining in Cage ([1]; 25 micro liter test compound) | % Mosquitoes Entering Treatment Port (Inhibitor Port) [1, 5] | % Mosquitoes Entering Control Port (Human Scent Port) [1, 6] | % Mosquitoes Remaining in Cage ([1]; 100 micro liter test compound) | % Mosquitoes Entering Treatment Port (Inhibitor Port) [1, 7] | % Mosquitoes Entering Control Port (Human Scent Port) [1, 8] | % Mosquitoes Remaining in Cage ([1]; 250 micro liter test compound) | % Mosquitoes Entering Treatment Port (Inhibitor Port) [1, 9] | % Mosquitoes Entering Control Port (Human Scent Port) [1, 10] | % Mosquitoes Remaining in Cage ([1]; 500 micro liter test compound) | % Mosquitoes Entering Treatment Port (Inhibitor Port) [1, 11] | % Mosquitoes Entering Control Port (Human Scent Port) [1, 12] | % Mosquitoes Remaining in Cage ([1]; 1000 micro liter test compound) | inhibition of the ability of mosquitoes to locate the human scent (CS) [1] | % Mosquitoes Remaining in Cage [2, 13] | % Mosquitoes Entering Port 1 (test compound + CS) [2, 14] | % Mosquitoes Entering Port 2 (human scent) [2, 14] | % Mosquitoes Remaining in Cage [2, 14] | also measured
1 | C#CC(C)(O)CCC=C(C)C (centres unmarked) [Dehydrolinalool, dehydrolinalool] | 30.23% | 50.77% | 19% | 31.13% | 53.87% | 15% | 22.6% | 44.6% | 32.8% | 24.8% | 56.47% | 24.18% | 26.11% | 42.76% | 27.12% | greatly inhibit | 19.8% | 18.1% | 63% | 18.9% | % Mosquitoes Entering Port 2 (dehydrolinalool) [2, 13]: 20.1%; % Mosquitoes Entering Port 2 (dehydrolinalool) [2, 15]: 22.5%; % Mosquitoes Remaining in Cage [2, 15]: 29.2%; % Mosquitoes Entering Port 1 (test compound + CS) [2, 16]: 20.1%; % Mosquitoes Entering Port 2 (human scent) [2, 16]: 59.2%; % Mosquitoes Remaining in Cage [2, 16]: 20.6%; % Mosquitoes Entering Port 2 (dehydrolinalool) [2, 17]: 30.3%; % Mosquitoes Remaining in Cage [2, 17]: 27.6%; % Mosquitoes Entering Port 1 (test compound + CS) [2, 18]: 20.6%; % Mosquitoes Entering Port 2 (human scent) [2, 18]: 55.5%; % Mosquitoes Remaining in Cage [2, 18]: 23.9%
2 | C=CC(C)(O)CCC=C(C)C (centres unmarked) [Linalool, linalool] | 21.98% | 56.89% | 21.14% | 31.3% | 45.61% | 23.08% | 16.57% | 47.3% | 36.13% | 16.13% | 44.56% | 39.31% | 27.24% | 44.14% | 31.3% | greatly inhibit | – | 22.5% | 50.7% | 26.8% | % Mosquitoes Entering Port 2 (linalool) [2, 19]: 17.5%; % Mosquitoes Remaining in Cage [2, 19]: 26.2%; % Mosquitoes Entering Port 2 (linalool) [2, 20]: 25.7%; % Mosquitoes Remaining in Cage [2, 20]: 26.2%; % Mosquitoes Entering Port 1 (test compound + CS) [2, 16]: 14.9%; % Mosquitoes Entering Port 2 (human scent) [2, 16]: 56.8%; % Mosquitoes Remaining in Cage [2, 16]: 28.4%; % Mosquitoes Entering Port 2 (linalool) [2, 21]: 23.1%; % Mosquitoes Remaining in Cage [2, 21]: 27.3%; % Mosquitoes Entering Port 1 (test compound + CS) [2, 18]: 25.7%; % Mosquitoes Entering Port 2 (human scent) [2, 18]: 55.6%; % Mosquitoes Remaining in Cage [2, 18]: 18.7%; reduction of mosquito landing counts, average (Culex nigripalpus; average over the three trials, linalool dispensed at 20 mg/hr to 40 mg/hr, human subject, 64 ft^2 area): 53%; reduction of landings (Culex nigripalpus; morning trial (7:00 AM to 9:00 AM) when mosquito activity was light): 73%; landings on human subject (Culex nigripalpus; subject surrounded by linalool dispensed from the dispensers (unprotected: 286 landings)): 135 landings
3 | CCN(CC)C(=O)c1cccc(C)c1 [Deet, N,N-diethyl-3-methylbenzamide, reference compound] | – | – | – | – | – | – | – | – | – | – | – | – | – | – | – | – | 19.8% | – | – | – | % Mosquitoes Entering Port 1 (Deet) [2, 13]: 60.1%; % Mosquitoes Entering Port 1 (Deet) [2, 19]: 56.3%; % Mosquitoes Remaining in Cage [2, 19]: 26.2%; % Mosquitoes Entering Port 1 (Deet) [2, 15]: 48.8%; % Mosquitoes Remaining in Cage [2, 15]: 29.2%; % Mosquitoes Entering Port 1 (Deet) [2, 20]: 48.1%; % Mosquitoes Remaining in Cage [2, 20]: 26.2%; % Mosquitoes Entering Port 1 (Deet) [2, 17]: 42.1%; % Mosquitoes Remaining in Cage [2, 17]: 27.6%; % Mosquitoes Entering Port 1 (Deet) [2, 21]: 49.5%; % Mosquitoes Remaining in Cage [2, 21]: 27.3%
